In patent US9789096B2, “Methods and compositions for selective and targeted cancer therapy” (Board of Regents of the University of Texas System, priority 2013, dated 2017):
Like-named read-outs stand apart in the source and are kept apart here.

Tests used:
Format in all cases: cell-based, human
[1] = system: H2122; assay: Cell viability dose-response, H2122; conditions: for AC50: NCI-H2122, Table 8, 12-point dose-response starting at 50 micromolar; for IC50: read-out: IC50 (uM) vs indicated non-small cell lung cancer cell line H2122
Procedure, shortened: (§1)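 Viability read as total ATP (Cell Titer Glo) following 4 days' compound exposure, with IC50 derived from dose-response curves. Duplicate 12-point series, top concentration 50 micromolar with 3-fold steps, on cells seeded at 15% confluence in RPMI-1640, 5% FBS, 2 mM L-glutamine.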

[2] = system: H1819; assay: Cell viability dose-response, H1819; conditions: for AC50: NCI-H1819, Table 8, 12-point dose-response starting at 50 micromolar; for IC50: read-out: IC50 (uM) vs indicated non-small cell lung cancer cell line H1819
Procedure, shortened: as §1

[3] = system: HCC44; assay: Cell viability dose-response, HCC44; conditions: Homo sapiens, HCC44, Table 8; 12-point dose-response starting at 50 micromolar
Procedure, shortened: (§2)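 Compound is titrated onto cells seeded at 15% confluence and incubated four days in 5% FBS RPMI-1640 medium. ATP-based luminescence gives viability; duplicate means ±SEM define the dose-response curve.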

[4] = system: H2073; assay: Cell viability dose-response, H2073; conditions: for AC50: NCI-H2073, Table 8, 12-point dose-response starting at 50 micromolar; for IC50: read-out: IC50 (uM) vs indicated non-small cell lung cancer cell line H2073
Method: (§3) FIG. 6A. […] Cell viability is plotted vs. compound concentration. Compound was added to cells plated at 15% confluence in 96-well plates in RPMI-1640 media supplemented with 5% Fetal Bovine Serum and 2 mM L-Glutamine. After 4 days of incubation, ATP levels were measured using Cell Titer Glo (Promega). Data are presented as the average of 2 replicates ±SEM.
(§4) Selectivity may be measured by the half maximal inhibitory concentration (IC50), which, as used herein, is a measure of the effectiveness of a compound in killing cells. This quantitative measure indicates how much of a particular compound is needed to kill a particular cell population by half (e.g., as indicated by the amount of ATP). […] The IC50 can be determined by constructing a dose-response curve. The lower the IC50, the higher the potency, and the greater the difference between IC50 values for different cell lines (e.g., sensitive lines vs. insensitive lines, and sensitive lines vs. normal lines) the greater the selectivity. […]
With this information, we synthesized and tested a series of small molecules derived in conception from the oxalamide and chromone scaffold including N-acyl ureas, as shown in Tables 6-8. Each compound was tested in a 12-point dose-response study starting at 50 micromolar and decreasing in 3-fold increments to sub-nanomolar concentrations, in duplicate. Additionally, one or more additional cell line was tested in the same way.

[5] = system: H2009; assay: Cell viability dose-response, H2009; conditions: Homo sapiens, NCI-H2009; Tables 3 and 4; read-out: IC50 (uM) vs indicated non-small cell lung cancer cell line H2009
Procedure, shortened: as §2

[6] = system: HBEC30KT; assay: Cell viability (ATP, Cell Titer Glo, 4 days), HBEC30KT; conditions: Homo sapiens, Tables 3 and 4; read-out: HBEC30KT IC50
Method: as §3, §4

[7] = Homo sapiens, NCI-H2122, Tables 3 and 4
[8] = Homo sapiens, NCI-H1819, Tables 3 and 4
[9] = Homo sapiens, NCI-H2073, Tables 3 and 4

SMILES | AC50 ([1]; Homo sapiens) | AC50 ([2]; Homo sapiens) | AC50 ([4]; Homo sapiens) | IC50 [1, 7] | IC50 [2, 8] | IC50 [4, 9] | also measured
O=c1c(Oc2ccccc2F)coc2cc(OCc3cnn(-c4ccccc4)c3)ccc12 [SW043139] | 0.166 µM | 50 µM | 50 µM | – | – | – | AC50 [3]: 50 µM
COc1ccc2nc(NS(=O)(=O)c3ccc(Br)cc3)sc2c1 [SW166942] | – | – | – | 59.6 µM | 46.7 µM | 47.6 µM | IC50 [5]: 78.6 µM
O=C(Nc1ccc([N+](=O)[O-])cc1F)c1sc2ccccc2c1Cl [SW202552] | – | – | – | 122 µM | – | – | IC50 [6]: 4950 µM
COc1ccc2nc(NS(=O)(=O)c3ccc(C(F)(F)F)cc3)sc2c1 [SW202746] | – | – | – | 46.1 µM | 36 µM | 38 µM | IC50 [5]: 42.7 µM
COc1ccc2nc(NS(=O)(=O)CC34CCC(CC3=O)C4(C)C)sc2c1 (centres unmarked) [SW202752] | – | – | – | – | 166 µM | 110 µM | IC50 [5]: 4950 µM
C#CCOc1ccc(C(=O)c2ccc(C(=O)Nc3nc4ccc(OC)cc4s3)cc2)cc1 [SW209049-2] | – | – | – | – | – | – | IC50 ([1]; Tables 3 and 4): 0.131 µM; IC50 ([2]; Tables 3 and 4): 21 µM; IC50 ([4]; Tables 3 and 4): 18 µM
C#CCNC(=O)c1ccc(C(=O)Nc2nc3ccccc3s2)cc1 [SW209082-1] | – | – | – | 0.1 µM | 45.5 µM | 45.5 µM | –
O=C(c1ccccc1)c1ccc(NC(=O)c2nc3ccccc3s2)cc1 [SW209091-1] | – | – | – | 0.01 µM | 9.03 µM | 24 µM | –
C#CCOC(=O)Nc1ccc(C(=O)Nc2nc3ccccc3s2)cc1 [SW209168-1] | – | – | – | 0.029 µM | 40.1 µM | 39.2 µM | –
O=c1c(Cc2ccccn2)coc2cc(OCc3cnn(-c4ccccc4)c3)ccc12 [SW209187-1] | 0.28 µM | 49.5 µM | 49.5 µM | – | – | – | –
O=c1c(Cc2ccncc2)coc2cc(OCc3cnn(-c4ccccc4)c3)ccc12 [SW209193-1] | 0.549 µM | 49.5 µM | 49.5 µM | – | – | – | –
O=C1/C(=C/c2ccc(F)cc2)COc2cc(OCc3cnn(-c4ccccc4)c3)ccc21 [SW209194-1] | 0.876 µM | 49.5 µM | 49.5 µM | – | – | – | –
O=C1/C(=C/c2ccccc2C(F)(F)F)COc2cc(OCc3cnn(-c4ccccc4)c3)ccc21 [SW209195-1] | 0.085 µM | 49.5 µM | 0.39 µM | – | – | – | –
O=C1/C(=C/c2ccccc2F)COc2cc(OCc3cnn(-c4ccccc4)c3)ccc21 [SW209196-1] | 0.827 µM | 41 µM | 49.5 µM | – | – | – | –
O=C1/C(=C/c2cccc(C(F)(F)F)c2)COc2cc(OCc3cnn(-c4ccccc4)c3)ccc21 [SW209197-1] | 0.042 µM | 21.8 µM | 26 µM | – | – | – | –
O=C1/C(=C/c2ccc(C(F)(F)F)cc2)COc2cc(OCc3cnn(-c4ccccc4)c3)ccc21 [SW209198-1] | 1.44 µM | 49.5 µM | 49.5 µM | – | – | – | –
Cc1ccc(/C=C2\COc3cc(OCc4cnn(-c5ccccc5)c4)ccc3C2=O)cc1 [SW209199-1] | 43.7 µM | 39.5 µM | 36.1 µM | – | – | – | –
Cc1ccccc1/C=C1\COc2cc(OCc3cnn(-c4ccccc4)c3)ccc2C1=O [SW209200-1] | 0.874 µM | 49.5 µM | 49.5 µM | – | – | – | –
O=C(CCc1ccc(Br)cc1)Cn1ccnc1 [SW209201-1] | ≥ 49.5 µM | 49.5 µM | 49.5 µM | – | – | – | –
O=C1c2ccc(OCc3cnn(-c4ccccc4)c3)cc2OCC1Cc1ccccc1 (centres unmarked) [SW209202-1] | 0.307 µM | 49.5 µM | 49.5 µM | – | – | – | –
O=c1c(Cc2cccnc2)coc2cc(OCc3cnn(-c4ccccc4)c3)ccc12 [SW209203-1] | 3.17 µM | 49.5 µM | 44 µM | – | – | – | –
O=C(Nc1nc2ccccc2s1)c1cccc([N+](=O)[O-])c1 [SW209205-1] | – | – | – | 0.397 µM | 0.468 µM | 49.5 µM | –
O=C(Nc1nc2ccccc2[nH]1)c1ccc([N+](=O)[O-])cc1 [SW209206-1] | – | – | – | ≥ 49.5 µM | ≥ 49.5 µM | 49.5 µM | –
